In publication PMC3841161, “De Novo Design and Synthesis of Ultra-Short Peptidomimetic Antibiotics Having Dual Antimicrobial and Anti-Inflammatory Activities” (PLoS ONE, 2013):
Residues, ends and D or L forms follow the SMILES beside them. No end group written: not given here.

How the values were obtained:
[1] = system: P. aeruginosa [KCTC 1637]; format: cell-based, Pseudomonas aeruginosa; conditions: KCTC 1637, 20 h
Experimental: (§1) The antimicrobial activity of the peptides against two Gram-positive bacterial strains and two Gram-negative bacterial strains was examined using the broth microdilution method in sterile 96-well plates. Aliquots (100 µL) of a bacterial suspension at 2×10^6 colony-forming units (CFU)/mL in 1% peptone were added to 100 µL of the peptide solution (serial two-fold dilutions in 1% peptone). After incubation for 18−20 h at 37°C, bacterial growth inhibition was determined by measuring the absorbance at 600 nm with a Microplate Autoreader EL 800 (Bio-Tek Instruments, VT). The minimal inhibitory concentration (MIC) was defined as the minimum peptide concentration inhibited bacteria growth. Two types of Gram-positive bacteria (S. epidermidis [KCTC 1917] and S. aureus [KCTC 1621]) and two types of Gram-negative bacteria (E. coli [KCTC 1682] and P. aeruginosa [KCTC 1637]) were procured from the Korean Collection for Type Cultures (KCTC) at the Korea Research Institute of Bioscience and Biotechnology (KRIBB). MRSA samples (CCARM 3089, CCARM 3090, and CCARM 3095) were obtained from the Culture Collection of Antibiotic-Resistant Microbes (CCARM) at Seoul Women's University (Seoul, Korea).

S. aureus [KCTC 1621] = format: cell-based, Staphylococcus aureus; conditions: KCTC 1621, 20 h
Experimental: as §1

[2] = system: four bacterial strains (E. coli, P. aeruginosa, S. epidermidis, S. aureus); format: cell-based; conditions: 20 h
Experimental: (§2) The prokaryotic selectivity of our designed HDAMPs is defined by the therapeutic index (TI) as a measure of the relative safety of the drug. It is a measure of a peptide's capability to differentiate any pathogen from a host cell. The TI value of each peptide was calculated as the ratio of the HC10 (the peptide concentration that produces 10% hemolysis toward hRBCs) to the geometric mean [GM; the geometric mean of the minimal inhibitory concentration (MIC) against four selected bacterial strains]. Larger values of TI correspond to greater prokaryotic selectivity.
as §1

[3] = system: S. epidermidis [KCTC 1917]; format: cell-based, Staphylococcus epidermidis; conditions: KCTC 1917, 20 h
Experimental: as §1

trypsin = assay: Protease stability by RP HPLC; format: in vitro ADME; conditions: 5 µL of 10 mg/mL peptide in 25 µL of 0.2-µg/mL trypsin in PBS, 37°C, 0, 0.5, 1.0, 2.0 and 4 h; C18 RP-HPLC, 224 nm
Experimental: Five microliters of an aqueous peptide stock solution (10 mg/mL) were added to 25 µL of the 0.2-µg/mL trypsin solution in PBS, respectively, and incubated at 37°C for 0, 0.5, 1.0, 2.0, and 4 h. The 5-µL solution was taken out at each time interval and immediately frozen with liquid nitrogen. Individually thawed samples were loaded onto a C18 reverse-phase column for HPLC analysis (5 µm; 4.6 mm ×250 mm; Vydac). Peptides were eluted by a 60-min linear gradient of 0–90% (v/v) acetonitrile in water containing 0.05% (v/v) trifluoroacetic acid with a flow rate of 1 mL/min and detection of 224 nm.

[4] = system: hRBCs versus four bacterial strains; assay: Prokaryotic selectivity (therapeutic index, HC10/GM); conditions: ratio of HC10 to GM; 512 µg/mL used for HC10 >256 and 128 µg/mL for MIC >64
Experimental: as §2

E. coli [KCTC 1682] = format: cell-based, Escherichia coli; conditions: KCTC 1682, 20 h
Experimental: as §1

MRSA 1 [CCARM 3089] = format: cell-based, methicillin-resistant Staphylococcus aureus; conditions: CCARM 3089, 20 h
Experimental: as §1

MRSA 3 [CCARM 3095] = format: cell-based, methicillin-resistant Staphylococcus aureus; conditions: CCARM 3095, 20 h
Experimental: as §1

MRSA 2 [CCARM 3090] = format: cell-based, methicillin-resistant Staphylococcus aureus; conditions: CCARM 3090, 20 h
Experimental: as §1

| Compound | Minimal Inhibitory Concentration (MIC) P. aeruginosa [KCTC 1637] [1] | Minimal Inhibitory Concentration (MIC) S. aureus [KCTC 1621] (S. aureus [KCTC 1621]) | GM, geometric mean of the MIC values against four bacterial strains [2] | Minimal Inhibitory Concentration (MIC) S. epidermidis [KCTC 1917] [3] | resistance to proteolysis by trypsin, remaining peptide by RP-HPLC (in words) (trypsin) | TI (HC10/GM), therapeutic index [4] | Minimal Inhibitory Concentration (MIC) E. coli [KCTC 1682] (E. coli [KCTC 1682]) | Minimal Inhibitory Concentration (MIC) MRSA 1 [CCARM 3089] (MRSA 1 [CCARM 3089]) | Minimal Inhibitory Concentration (MIC) MRSA 3 [CCARM 3095] (MRSA 3 [CCARM 3095]) | Minimal Inhibitory Concentration (MIC) MRSA 2 [CCARM 3090] (MRSA 2 [CCARM 3090]) |
| --- | --- | --- | --- | --- | --- | --- | --- | --- | --- | --- |
| N=C(N)NCCC[C@@H](N)C(=O)N[C@@H](Cc1c[n+](CCCCCCCc2ccccc2)cn1CCCCCCCc1ccccc1)C(=O)N[C@H](CCCNC(=N)N)C(N)=O [HDAMP-5] | 16 (19.6) µg/mL | 8 (9.8) µg/mL | 12.0 (14.7) µg/mL | 8 (9.8) µg/mL | fully resistant | 10.8 | 16 (19.6) µg/mL | 8 (9.8) µg/mL | 8 (9.8) µg/mL | 8 (9.8) µg/mL |
| WRWRWR-NH2 [(WR)3-NH2, reference compound] | 16 (15.3) µg/mL | 8 (7.7) µg/mL | 9 (8.6) µg/mL | 8 (7.7) µg/mL |  | 56.9 | 4 (3.8) µg/mL |  |  |  |
| N=C(N)NCCC[C@H](NC(=O)[C@@H](N)Cc1c[n+](CCCCCCCc2ccccc2)cn1CCCCCCCc1ccccc1)C(N)=O [HDAMP-3] | 4 (6.1) µg/mL | 2 (3) µg/mL | 3 (4.6). µg/mL | 2 (3) µg/mL | fully resistant | 6.3 | 4 (6.1) µg/mL | 2 (3) µg/mL | 2 (3) µg/mL | 2 (3) µg/mL |
| N=C(N)NCCC[C@H](NC(=O)[C@H](Cc1c[nH]c2ccccc12)NC(=O)[C@@H](N)CCCNC(=N)N)C(N)=O [RWR-NH2, reference compound] (H-Arg-Trp-Arg-NH2) | >64 (>124) µg/mL | >64 (>124) µg/mL | >64 (>124) µg/mL | >64 (>124) µg/mL |  |  | >64 (>124) µg/mL |  |  |  |
| N=C(N)NCCC[C@H](NC(=O)[C@H](Cc1c[n+](CCCc2ccccc2)cn1CCCc1ccccc1)NC(=O)[C@@H](N)CCCNC(=N)N)C(N)=O [HDAMP-2] | 16 (22.7) µg/mL | 8 (11.4) µg/mL | 9 (12.8) µg/mL | 8 (11.4) µg/mL |  | 56.9 | 4 (5.7) µg/mL | 16 (22.7) µg/mL | 16 (22.7) µg/mL | 32 (45.5) µg/mL |
| N=C(N)NCCC[C@H](NC(=O)[C@H](Cc1cncn1CCCCCCCc1ccccc1)NC(=O)[C@@H](N)CCCNC(=N)N)C(N)=O [HDAMP-4] | 32 (49.9) µg/mL | 4 (6.2) µg/mL | 17.5 (27.3) µg/mL | 2 (3.1) µg/mL |  | 29.3 | 32 (49.9) µg/mL | 16 (24.9) µg/mL | 16 (24.9) µg/mL | 16 (24.9) µg/mL |
